± gives the expanded uncertainty stated by the source.
Assays:
[1] = Crystal; DSC
[2] = Molar enthalpy of transition or fusion; conditions: Crystal; DSC
[3] = refractive index (Na D-line) (dimensionless); conditions: 293.15 K; 101.33 kPa; Liquid; Standard Abbe refractometry

Structure (SMILES) | Triple point temperature [1] | Molar enthalpy of transition or fusion [2] | refractive index [3]
CCCCO [butan-1-ol] | – | – | 1.3989 ± 0.002
CCC(C)=O [butanone] | – | – | 1.3787 ± 0.002
C[S+](C)[O-] [dimethyl sulfoxide] | – | – | 1.4789 ± 0.002
CN(C)C=O [dimethylformamide] | – | – | 1.4309 ± 0.002
CCO [ethanol] | – | – | 1.361 ± 0.002
O [water] | – | – | 1.3334 ± 0.002

Further lines, results first:

Triple point temperature [1] | Molar enthalpy of transition or fusion [2] | refractive index [3] | Structure (SMILES)
395.63 ± 1.2 K | 4.25 ± 0.43 kcal/mol | – | O=C(O)c1ccccc1 [benzoic acid]
– | – | 1.4235 ± 0.002 | C1CCCCC1 [cyclohexane]
468.1 ± 1.2 K | 8.7 ± 0.884 kcal/mol | – | Cc1nnc(C(C)C)n1[C@@H]1C[C@H]2CC[C@@H](C1)N2CC[C@H](NC(=O)C1CCC(F)(F)CC1)c1ccccc1 [maraviroc]
– | – | 1.3893 ± 0.002 | CCCC(C)=O [pentan-2-one]
– | – | 1.3854 ± 0.002 | CCCO [propan-1-ol]
432.4 ± 1.2 K | 9.04 ± 0.932 kcal/mol | – | O=C(Nc1c(Cl)cncc1Cl)c1ccc(OC(F)F)c(OCC2CC2)c1 [roflumilast]

From the NIST ThermoML archive (doi:10.1021/acs.jced.9b00710)
